These are literature values, as cited in paper PMC6698915 (Cancer chemotherapy and pharmacology, 2015).

For this series, the system named is patients with locally advanced (M0) head and neck cancer. The following applies: with cisplatin and docetaxel 75 mg/m^2 q21 days, pegfilgrastim, previously untreated; cited from earlier work.

For `CO[C@H]1C[C@@H]2CC[C@@H](C)[C@@](O)(O2)C(=O)C(=O)N2CCCC[C@H]2C(=O)O[C@H]([C@H](C)C[C@@H]2CC[C@@H](OCCO)[C@H](OC)C2)CC(=O)[C@H](C)/C=C(\C)[C@@H](O)[C@@H](OC)C(=O)[C@H](C)C[C@H](C)/C=C/C=C/C=C/1C` [everolimus], the “escalation to full dose of daily everolimus” value was “not possible to escalate to full dose of daily everolimus due to dose-limiting neutropenia”.
